Measured values reported in patent US11957759B1, “Rapidly accelerated fibrosarcoma (RAF) degrading compounds and associated methods of use” (Arvinas Operations, Inc., priority 2022, dated 2024).

What was measured:
B-RAF V600E = biological target: T1, B-RAF V600E (Homo sapiens, UniProt P15056, V600E); assay: Target protein degradation, assay A: T-Rex 293 cells, HA-B-RAF_V600E, 96 well format; assay type: cell-based; settings: T-Rex 293 HA-B-RAF_V600E cells, 24 hours, Examples 1-82
T1 construct: expressed in transfected cells; host or cells: T-Rex 293 cells (Invitrogen #R71007)
Protocol: A. T-Rex 293 Cells (96 well format)
T-Rex 293 cells were purchased from Invitrogen (#R71007), and stably transfected with a pcDNA4/TO_HA-B-RAF_V600E construct, using 400 ug Zeocin for selection. V600e cells are plated in ulbecco's Modified Eagle Medium (DMEM; Gibco #11965118) containing 10% fetal bovine serum (FBS; Gibco #16000044) and 1 ng/mL doxycycline (Selleckchem #4163) at a density of 5,000 cells/well in 50 μl on poly-D-lysine (PDL) coated, black clear bottom 96-well plates (Corning #354640) and incubated for 24 hours at 37° C. with 5% CO2. The following day 50 ul of tested compound was added at 2× concentration in DMEM with a final concentration ranging from 1 μM to 0.1 nM in 0.1% dimethylsulfoxide (DMSO), and incubated for 24 hours at 37° C. with 5% CO2. At the end of the experimental treatment, the media was flicked off and cells washed once with phosphate-buffered saline (PBS)++(PBS with CaCl and MgCl) and gently replacing with 200 μl PBS++ per well. The PBS++ was removed and 50 uL 4% paraformaldehyde (PFA; EMS #15710) in PBS++ was added, and incubate at room temperature for 15 minutes. Cells were washed once with PBS++ and 50 uL 0.1% Triton X-100 (Fisher #BP151-500) in PBS++ was added. Plate was incubate for 5 minutes at room temperature. Cells were was once with PBS++. Cells were blocked with 100 uL Licor blocking buffer (Licor #927-50000) for 1 hour at room temperature. Next, 50 uL of HA antibody (CST #3724) at 1:1000 in Licor blocking buffer was added, and the plate icubate overnight at 4° C. The plates were parafilmed to prevent evaporation. Plate was washed three times with 200 uL PBS++. Fifty microliters of HCS secondary antibody solution [1:1000 Hoechst (Invitrogen #H3570), 1:1000 phalloidin (Invitrogen #A22287) and 1:5000 Alexa fluor (Invitrogen #A11008)] was added and incubated for 1 hour. Plate was wash three times with 200 uL PBS++, and imaged on a high content reader (ImageXpress Micro XLS, Molecular Devices).
(§1) The concentration of an exemplary compound that leads to half maximal degradation (DC50) as well as the maximum degradation observed (Dmax, conventionally expressed as a percentage of control) is shown below in Table 2.

B-RAF G466V = biological target: T2, B-RAF G466V (Homo sapiens, UniProt P15056, G466V); assay: Target protein degradation, assay B: T-Rex 293 cells, HA-B-RAF_G466V, 96 well format; assay type: cell-based; settings: T-Rex 293 HA-B-RAF_G466V cells, 24 hours, Examples 1-82
T2 construct: expressed in transfected cells; host or cells: T-Rex 293 cells (Invitrogen #R71007)
Protocol: B. T-Rex 293 Cells (96 Well Format)
T-Rex 293 cells were purchased from Invitrogen (#R71007), and stably transfected with a pcDNA4/TO_HA-B-RAF_G466V construct, using 400 ug Zeocin for selection. G466V cells are plated in ulbecco's Modified Eagle Medium (DMEM; Gibco #11965118) containing 10% fetal bovine serum (FBS; Gibco #16000044) and 0.75 ng/mL doxycycline (Selleckchem #4163) at a density of 5,000 cells/well in 50 μl on poly-D-lysine (PDL) coated, black clear bottom 96-well plates (Corning #354640) and incubated for 24 hours at 37° C. with 5% CO2. The following day 50 ul of tested compound was added at 2× concentration in DMEM with a final concentration ranging from 30 nM to 3 pM in 0.1% dimethylsulfoxide (DMSO), and incubated for 24 hours at 37° C. with 5% CO2. At the end of the experimental treatment, the media was flicked off and cells washed once with phosphate-buffered saline (PBS)++(PBS with CaCl and MgCl) and gently replacing with 200 μl PBS++ per well. The PBS++ was removed and 50 uL 4% paraformaldehyde (PFA; EMS #15710) in PBS++ was added, and incubate at room temperature for 15 minutes. Cells were washed once with PBS++ and 50 uL 0.1% Triton X-100 (Fisher #BP151-500) in PBS++ was added. Plate was incubate for 5 minutes at room temperature. Cells were was once with PBS++. Cells were blocked with 100 uL Licor blocking buffer (Licor #927-50000) for 1 hour at room temperature. Next, 50 uL of HA antibody (CST #3724) at 1:1000 in Licor blocking buffer was added, and the plate icubate overnight at 4° C. The plates were parafilmed to prevent evaporation. Plate was washed three times with 200 uL PBS++. Fifty microliters of HCS secondary antibody solution [1:1000 Hoechst (Invitrogen #H3570), 1:1000 phalloidin (Invitrogen #A22287) and 1:5000 Alexa fluor (Invitrogen #A11008)] was added and incubated for 1 hour. Plate was wash three times with 200 uL PBS++, and imaged on a high content reader (ImageXpress Micro XLS, Molecular Devices).
as §1

T1 sequence (P15056 whole entry V600E): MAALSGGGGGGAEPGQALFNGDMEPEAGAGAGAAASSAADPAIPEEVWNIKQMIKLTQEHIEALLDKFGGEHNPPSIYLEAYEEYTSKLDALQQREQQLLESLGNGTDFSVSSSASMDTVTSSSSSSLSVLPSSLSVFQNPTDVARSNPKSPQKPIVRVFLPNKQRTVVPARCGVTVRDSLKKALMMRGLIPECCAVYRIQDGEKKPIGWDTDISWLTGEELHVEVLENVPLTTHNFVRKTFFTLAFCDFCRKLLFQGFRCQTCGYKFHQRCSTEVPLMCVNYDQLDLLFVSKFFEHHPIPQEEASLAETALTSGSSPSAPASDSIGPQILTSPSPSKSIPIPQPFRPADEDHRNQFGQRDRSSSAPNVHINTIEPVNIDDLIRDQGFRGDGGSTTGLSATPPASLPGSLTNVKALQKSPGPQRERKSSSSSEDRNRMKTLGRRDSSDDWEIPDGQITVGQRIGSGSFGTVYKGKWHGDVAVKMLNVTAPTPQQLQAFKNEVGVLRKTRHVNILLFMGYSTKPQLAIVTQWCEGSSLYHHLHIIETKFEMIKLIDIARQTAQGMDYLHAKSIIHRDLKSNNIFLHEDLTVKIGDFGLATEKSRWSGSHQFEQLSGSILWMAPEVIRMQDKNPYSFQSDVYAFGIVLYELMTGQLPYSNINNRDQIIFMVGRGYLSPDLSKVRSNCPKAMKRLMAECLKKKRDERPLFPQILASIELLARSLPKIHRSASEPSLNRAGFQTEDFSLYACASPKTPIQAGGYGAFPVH
T2 sequence (P15056 whole entry G466V): as the sequence (P15056 whole entry V600E) above, with G466V, E600V counted along it

DC50 (B-RAF V600E) [nM] | Dmax (B-RAF V600E) [%] | DC50 (B-RAF G466V) [nM] | Dmax (B-RAF G466V) [%] | SMILES
5 to 50 | 35 to 70 | ≤ 1 | 35 to 70 | N#Cc1c(NS(=O)(=O)N2CC[C@@H](F)C2)ccc(F)c1Oc1ccc2ncn(-c3ccc(N4CCN(CC5CCN(c6ccc7c(c6)CN(C6CCC(=O)NC6=O)C7=O)CC5)CC4)cc3)c(=O)c2c1 (stereo partly drawn) [Example 1, (3R)—N-[2-cyano-3-[3-[4-[4-[[1-[2-(2,6-dioxo-3-piperidyl)-1-oxo-isoindolin-5-yl]-4-piperidyl]methyl]piperazin-1-yl]phenyl]-4-oxo-quinazolin-6-yl]oxy-4-fluoro-phenyl]-3-fluoro-pyrrolidine-1-sulfonamide]
> 500 | – | > 30 | – | N#Cc1c(NS(=O)(=O)N2CC[C@@H](F)C2)ccc(F)c1Oc1ccc2ncn(-c3ccc(N4CCN(c5ccc6c(c5)CN(C5CCC(=O)NC5=O)C6=O)CC4)cc3)c(=O)c2c1 (stereo partly drawn) [Example 5, (3R)—N-[2-cyano-3-[3-[4-[4-[2-(2,6-dioxo-3-piperidyl)-1-oxo-isoindolin-5-yl]piperazin-1-yl]phenyl]-4-oxo-quinazolin-6-yl]oxy-4-fluoro-phenyl]-3-fluoro-pyrrolidine-1-sulfonamide]
> 500 | – | > 30 | – | N#Cc1c(NS(=O)(=O)N2CC[C@@H](F)C2)ccc(F)c1Oc1ccc2ncn(-c3ccc(N4CCN(CCN5CCN(c6ccc7c(c6)CN(C6CCC(=O)NC6=O)C7=O)CC5)CC4)cc3)c(=O)c2c1 (stereo partly drawn) [Example 10, (3R)-N-{2-cyano-3-[(3-(4-[4-(2-{4-[2-(2,6-dioxopiperidin-3-yl)-1-oxo-2,3-dihydro-1H-isoindol-5-yl]piperazin-1-yl}ethyl)piperazin-1-yl]phenyl}-4-oxo-3,4-dihydroquinazolin-6-yl)oxy]-4-fluorophenyl}-3-fluoropyrrolidine-1-sulfonamide]

The next lines start with the compound.

SMILES | DC50 (B-RAF V600E) [nM] | Dmax (B-RAF V600E) [%] | DC50 (B-RAF G466V) [nM] | Dmax (B-RAF G466V) [%]
N#Cc1c(NS(=O)(=O)N2CC[C@@H](F)C2)ccc(F)c1Oc1ccc2ncn(-c3ccc(N4CCN(CC5CCN(c6ccc([C@H]7CCC(=O)NC7=O)cc6F)CC5)CC4)cc3)c(=O)c2c1 (single isomer, unassigned) [Example 80, (3R)—N-(2-cyano-3-{[3-(4-{4-[(1-{4-[(3R*)-2,6-dioxopiperidin-3-yl]-2-fluorophenyl}piperidin-4-yl)methyl]piperazin-1-yl}phenyl)-4-oxo-3,4-dihydroquinazolin-6-yl]oxy}-4-fluorophenyl)-3-fluoropyrrolidine-1-sulfonamide] | 50 to 500 | 35 to 70 | 1 to 10 | 35 to 70
N#Cc1c(NS(=O)(=O)N2CC[C@@H](F)C2)ccc(F)c1Oc1ccc2ncn(-c3ccc(N4CCN(CC5CN(c6ccc7c(c6)CN(C6CCC(=O)NC6=O)C7=O)C5)CC4)cc3)c(=O)c2c1 (stereo partly drawn) [Example 2, (3R)—N-{2-cyano-3-[(3-{4-[4-({1-[2-(2,6-dioxopiperidin-3-yl)-1-oxo-2,3-dihydro-1H-isoindol-5-yl]azetidin-3-yl}methyl)piperazin-1-yl]phenyl}-4-oxo-3,4-dihydroquinazolin-6-yl)oxy]-4-fluorophenyl}-3-fluoropyrrolidine-1-sulfonamide] | 50 to 500 | ≤ 35 | ≤ 1 | 35 to 70
N#Cc1c(NS(=O)(=O)N2CC[C@@H](F)C2)ccc(F)c1Oc1ccc2ncn(-c3ccc(N4CCN(CC5CCN(c6ccc7c(c6)CN(C6CCC(=O)NC6=O)C7=O)CC5)CC4)nc3)c(=O)c2c1 (stereo partly drawn) [Example 3, (3R)—N-[2-cyano-3-[3-[6-[4-[[1-[2-(2,6-dioxo-3-piperidyl)-1-oxo-isoindolin-5-yl]-4-piperidyl]methyl]piperazin-1-yl]-3-pyridyl]-4-oxo-quinazolin-6-yl]oxy-4-fluoro-phenyl]-3-fluoro-pyrrolidine-1-sulfonamide] | 50 to 500 | ≤ 35 | 1 to 10 | 35 to 70
N#Cc1c(NS(=O)(=O)N2CC[C@@H](F)C2)ccc(F)c1Oc1ccc2ncn(-c3ccc(N4CCN(C(=O)CC5(O)CCN(c6ccc7c(c6)CN([C@H]6CCC(=O)NC6=O)C7=O)CC5)CC4)cc3)c(=O)c2c1 [Example 4, (3R)—N-(2-cyano-3-{[3-(4-{4-[2-(1-{2-[(3S)-2,6-dioxopiperidin-3-yl]-1-oxo-2,3-dihydro-1H-isoindol-5-yl}-4-hydroxypiperidin-4-yl)acetyl]piperazin-1-yl}phenyl)-4-oxo-3,4-dihydroquinazolin-6-yl]oxy}-4-fluorophenyl)-3-fluoropyrrolidine-1-sulfonamide] | 5 to 50 | 35 to 70 | 1 to 10 | 35 to 70
N#Cc1c(NS(=O)(=O)N2CC[C@@H](F)C2)ccc(F)c1Oc1ccc2ncn(C3CCN(CC4CCN(c5ccc6c(c5)CN(C5CCC(=O)NC5=O)C6=O)CC4)CC3)c(=O)c2c1 (stereo partly drawn) [Example 6, (3R)-N-[2-cyano-3-({3-[1-({1-[2-(2,6-dioxopiperidin-3-yl)-1-oxo-2,3-dihydro-1H-isoindol-5-yl]piperidin-4-yl}methyl)piperidin-4-yl]-4-oxo-3,4-dihydroquinazolin-6-yl}oxy)-4-fluorophenyl]-3-fluoropyrrolidine-1-sulfonamide] | > 500 | – | ≤ 1 | ≤ 35
N#Cc1c(NS(=O)(=O)N2CC[C@@H](F)C2)ccc(F)c1Oc1ccc2ncn(C3CCN(CCN4CCN(c5ccc6c(c5)CN(C5CCC(=O)NC5=O)C6=O)CC4)CC3)c(=O)c2c1 (stereo partly drawn) [Example 7, (3R)-N-[2-cyano-3-({3-[1-(2-{4-[2-(2,6-dioxopiperidin-3-yl)-1-oxo-2,3-dihydro-1H-isoindol-5-yl]piperazin-1-yl}ethyl)piperidin-4-yl]-4-oxo-3,4-dihydroquinazolin-6-yl}oxy)-4-fluorophenyl]-3-fluoropyrrolidine-1-sulfonamide] | > 500 | 35 to 70 | 10 to 30 | 35 to 70
N#Cc1c(NS(=O)(=O)N2CC[C@@H](F)C2)ccc(F)c1Oc1ccc2ncn(-c3ccc(N4CCN(CC5CN(c6ccc7c(c6)CN(C6CCC(=O)NC6=O)C7=O)C5)CC4)nc3)c(=O)c2c1 (stereo partly drawn) [Example 8, (3R)-N-{2-cyano-3-[(3-{6-[4-({1-[2-(2,6-dioxopiperidin-3-yl)-1-oxo-2,3-dihydro-1H-isoindol-5-yl]azetidin-3-yl}methyl)piperazin-1-yl]pyridin-3-yl}-4-oxo-3,4-dihydroquinazolin-6-yl)oxy]-4-fluorophenyl}-3-fluoropyrrolidine-1-sulfonamide] | 50 to 500 | 35 to 70 | 1 to 10 | ≤ 35
N#Cc1c(NS(=O)(=O)N2CC[C@@H](F)C2)ccc(F)c1Oc1ccc2ncn(-c3cnc(N4CCN(CC5CN(c6ccc7c(c6)CN(C6CCC(=O)NC6=O)C7=O)C5)CC4)nc3)c(=O)c2c1 (stereo partly drawn) [Example 9, (3R)-N-{2-cyano-3-[(3-{2-[4-({1-[2-(2,6-dioxopiperidin-3-yl)-1-oxo-2,3-dihydro-1H-isoindol-5-yl]azetidin-3-yl}methyl)piperazin-1-yl]pyrimidin-5-yl}-4-oxo-3,4-dihydroquinazolin-6-yl)oxy]-4-fluorophenyl}-3-fluoropyrrolidine-1-sulfonamide] | 50 to 500 | 35 to 70 | > 30 | –
